Earlier results in patent US20140322324A1, “Composition For The Treatment Of Bacterial Infections” (priority 2011, published 2014).

Test system: Staphylococcus aureus (ATCC #14154 and #14775)
Settings: two strains of Staphylococcus aureus (ATCC #14154 and #14775); for the combination: concentration of each

For `CCCCCCCCCCCC(=O)OCC(O)CO` (stereo not shown) [monolaurin], the “bactericidal concentration in culture” value is listed as “mirrored origanum oil”.
